Molecules are shown by their SMILES. Where two headings read alike, the source gives them in different places. Bounds are passed on as bounds.

Common to all, as to format: cell-based
Test [1] concerns alpha-smooth muscle actin (α-SMA). The experiment in a line: Inhibition of TGF-β induced expression of alpha-smooth muscle actin (α-SMA) in CFSC cells (western blot). As to conditions: compound at 10 μM, TGF-β (10 ng/mL), 24 hours, band intensity vs TGF-β only. An outline of the steps:
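CFSC hepatic stellate cells in serum-free DMEM treated 24 h at 37 °C with compound at 10 μM plus TGF-β (10 ng/mL). α-SMA measured by Western blot with β-actin, ECL detection, densitometry. Percent inhibition is decrease in band intensity versus TGF-β-only cells.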

For test [2], the system named is MDA-MB-231 (breast cancer). The experiment in a line: Antiproliferative activity (CCK-8 cell viability), MDA-MB-231. As to conditions: Homo sapiens, 72 h; for inhibition at 3.3 µM: Compound concentration: 3.3 μM; for inhibition at 10 µM: Compound concentration: 10 μM; for inhibition at 30 µM: Compound concentration: 30 μM. The method in brief:
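MDA-MB-231 breast cancer cells, grown in DMEM with 10% FBS, were plated in 96-well plates at 2,000-5,000 cells/well. Once attached, they were exposed to compound and incubated at 37° C. for 72 h. Viability was then measured with CCK-8 (10 μL per well, 4 h at 37° C.) by absorbance at 450 nm, relative to DMSO vehicle wells.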

Another test concerns HepG2 (liver cancer). The experiment in a line: Antiproliferative activity (CCK-8 cell viability), HepG2. To be noted: Homo sapiens, 72 h; for inhibition at 3.3 µM: Compound concentration: 3.3 μM; for inhibition at 10 µM: Compound concentration: 10 μM; for inhibition at 30 µM: Compound concentration: 30 μM. An outline of the steps: (§1)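 Cells grown in DMEM (HepG2, SW480), MEM (HeLa) or F-12K (A549), each with 10% FBS, then exposed to compound at 3.3, 10 or 30 μM for 72 h at 37 °C. CCK-8 absorbance at 450 nm; viability expressed as percent of DMSO-treated cells, graded as growth inhibition bands.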

The test system of the next test is SW480 (colon cancer). The experiment in a line: Antiproliferative activity (CCK-8 cell viability), SW480. To be noted: Homo sapiens, 72 h; for inhibition at 3.3 µM: Compound concentration: 3.3 μM; for inhibition at 10 µM: Compound concentration: 10 μM; for inhibition at 30 µM: Compound concentration: 30 μM. An outline of the steps:
as §1

Test [3] concerns B16F10 (malignant melanoma). Kind of test: Antiproliferative activity (CCK-8 cell viability), B16F10. As to conditions: Mus musculus, 72 h, read-out: Antiproliferative activity in cancerous cells, B16F10 (inhibition of cell growth); for inhibition at 3.3 µM: B16-F10, Compound concentration: 3.3 μM; for inhibition at 10 µM: B16-F10, Compound concentration: 10 μM. An outline of the steps: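 B16F10 melanoma cells grown in DMEM with 10% FBS were plated in 96-well plates at 2,000-5,000 cells/well. After attachment they were exposed to compound in medium for 72 h at 37° C. CCK-8 solution (10 μL) was then added, and after 4 h at 37° C absorbance was read at 450 nm.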

Test [4] deals with A431 (epidermoid carcinoma). The experiment in a line: Antiproliferative activity (CCK-8 cell viability), A431. As to conditions: Homo sapiens, 72 h, read-out: Antiproliferative activity in cancerous cells, A431 (inhibition of cell growth); for inhibition at 3.3 µM: A-431, Compound concentration: 3.3 μM; for inhibition at 10 µM: A-431, Compound concentration: 10 μM. The method in brief: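 A431 epidermoid carcinoma cells grown in DMEM with 10% FBS were plated at 2,000-5,000 cells/well in 96-well plates. After attachment they were exposed to compound at 3.3 μM, 10 μM, or 30 μM for 72 h at 37° C. Viability was then assessed by CCK-8 against DMSO vehicle-treated wells.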

Test [5] deals with A549 (lung adenocarcinoma). The experiment in a line: Antiproliferative activity (CCK-8 cell viability), A549. To be noted: Homo sapiens, 72 h; for inhibition at 3.3 µM: Compound concentration: 3.3 μM; for inhibition at 10 µM: Compound concentration: 10 μM; for inhibition at 30 µM: Compound concentration: 30 μM. An outline of the steps:
as §1

Another test relates to HeLa (cervical cancer). Kind of test: Antiproliferative activity (CCK-8 cell viability), HeLa. As to conditions: Homo sapiens, 72 h; for inhibition at 3.3 µM: Compound concentration: 3.3 μM; for inhibition at 10 µM: Compound concentration: 10 μM; for inhibition at 30 µM: Compound concentration: 30 μM. The method in brief: as §1
Setting [6] is: read-out: Antiproliferative activity in cancerous cells, MDA-MB-231 (inhibition of cell growth).
The mark [7] stands for this setting: read-out: Antiproliferative activity in cancerous cells, HepG2 (inhibition of cell growth).
[8] abbreviates: read-out: Antiproliferative activity in cancerous cells, SW480 (inhibition of cell growth).
Setting [9] is: read-out: Antiproliferative activity in cancerous cells, A549 (inhibition of cell growth).
Where [10] appears, read: read-out: Antiproliferative activity in cancerous cells, HELA (inhibition of cell growth).

For the molecule `CC1=C(CC(=O)O)c2cc(F)ccc2/C1=C/c1cccc(Oc2cccc(C(F)(F)F)c2)c1` [E16, (E)-2-(5-Fluoro-2-methyl-1-(3-(3-(trifluoromethyl)phenoxy)benzylidene)-1H-inden-3-yl)acetic acid], the inhibition at 10 µM in test [1] was > 80%; in test [2] (setting [6]) it was 30 to 50%; in the test with HepG2 (liver cancer) (setting [7]) it was 30 to 50%; in the test with SW480 (colon cancer) (setting [8]), < 30%; in test [3], < 30%; in test [4], < 30%. Further, the figures for the inhibition at 10 µM (in test [5] (setting [9]); in the test on HeLa (cervical cancer) (setting [10])) were 30 to 50% and ≥ 50%, respectively. Moreover, the inhibition at 3.3 µM is 30 to 50% in test [2] (setting [6]); < 30% in the test with HepG2 (liver cancer) (setting [7]); < 30% with SW480 (colon cancer) (setting [8]); < 30% in test [3]; < 30% in test [4]; 30 to 50% in test [5] (setting [9]). The inhibition at 3.3 µM with HeLa (cervical cancer) (setting [10]) was ≥ 50%. Also, the inhibition at 30 µM was ≥ 50% in test [2] (setting [6]); ≥ 50% in the test with HepG2 (liver cancer) (setting [7]); ≥ 50% in the test on SW480 (colon cancer) (setting [8]); ≥ 50% in test [3] (B16-F10, Compound concentration: 30 μM); ≥ 50% in test [4] (A-431, Compound concentration: 30 μM); ≥ 50% in test [5] (setting [9]). Besides, the inhibition at 30 µM in the test on HeLa (cervical cancer) (setting [10]) is ≥ 50%.

As to `CC1=C(CC(=O)O)c2c(F)cccc2/C1=C\c1ccc(Oc2ccc(F)cc2)cc1` [C9, (Z)-2-(4-Fluoro-1-(4-(4-fluorophenoxy)benzylidene)-2-methyl-1H-inden-3-yl)-acetic acid], the inhibition at 10 µM in test [1] was < 30%; in test [2] (setting [6]), 30 to 50%; with HepG2 (liver cancer) (setting [7]) it was < 30%; in the test with SW480 (colon cancer) (setting [8]), < 30%; in test [3], ≥ 50%; in test [4], 30 to 50%. Also, the inhibition at 10 µM (in test [5] (setting [9]); in the test with HeLa (cervical cancer) (setting [10])) was < 30% each time. The inhibition at 3.3 µM is 30 to 50% in test [2] (setting [6]); 30 to 50% in the test with HepG2 (liver cancer) (setting [7]); < 30% with SW480 (colon cancer) (setting [8]); ≥ 50% in test [3]; 30 to 50% in test [4]; < 30% in test [5] (setting [9]). Besides, in the test with HeLa (cervical cancer) (setting [10]), the inhibition at 3.3 µM is < 30%. In addition, the inhibition at 30 µM is 30 to 50% in test [2] (read-out: Antiproliferative activity in cancerous cells, MDA-MB-231); 30 to 50% with HepG2 (liver cancer) (read-out: Antiproliferative activity in cancerous cells, HepG2); < 30% in the test on SW480 (colon cancer) (read-out: Antiproliferative activity in cancerous cells, SW480); < 30% in test [5] (read-out: Antiproliferative activity in cancerous cells, A549); < 30% with HeLa (cervical cancer) (read-out: Antiproliferative activity in cancerous cells, HELA).

Consider `COc1ccc2c(c1)/C(=C\c1ccc(Oc3ccc(F)cc3)cc1)C(Cc1ccccc1)=C2CC(=O)O` [C27, (Z)-2-(2-Benzyl-1-(4-(4-fluorophenoxy)benzylidene)-6-methoxy-1H-inden-3-yl)-acetic acid], for which the inhibition at 10 µM in test [1] was > 80%; in test [2] (setting [6]), ≥ 50%; with HepG2 (liver cancer) (setting [7]) it was ≥ 50%; in the test with SW480 (colon cancer) (setting [8]) it was ≥ 50%; in test [3], ≥ 50%; in test [4] it was ≥ 50%. The inhibition at 10 µM (in test [5] (setting [9]); in the test on HeLa (cervical cancer) (setting [10])) was ≥ 50% throughout. For the same molecule, the inhibition at 3.3 µM in test [2] (setting [6]) is ≥ 50%; in the test on HepG2 (liver cancer) (setting [7]) it was ≥ 50%; in the test with SW480 (colon cancer) (setting [8]), < 30%; in test [3] it was 30 to 50%; in test [4] it was < 30%; in test [5] (setting [9]) it was ≥ 50%. In addition, in the test on HeLa (cervical cancer) (setting [10]), the inhibition at 3.3 µM is ≥ 50%.

Take `COc1ccc(/C=C2/C(Cc3ccc(Oc4ccc(F)cc4)cc3)=C(CC(=O)O)c3cc(F)ccc32)cc1` [A110, (Z)-2-(5-Fluoro-2-(4-(4-fluorophenoxy)benzyl)-1-(4-methoxybenzylidene)-1H-inden-3-yl)acetic acid]: the inhibition at 10 µM in test [1] was > 80%; in test [2] (setting [6]) it was ≥ 50%; with HepG2 (liver cancer) (setting [7]), < 30%; with SW480 (colon cancer) (setting [8]), ≥ 50%; in test [3], ≥ 50%; in test [4] it was ≥ 50%. Further, the inhibition at 10 µM (in test [5] (setting [9]); in the test on HeLa (cervical cancer) (setting [10])) was ≥ 50% each time. The inhibition at 3.3 µM in test [2] (setting [6]) was ≥ 50%; with HepG2 (liver cancer) (setting [7]), < 30%; with SW480 (colon cancer) (setting [8]) it was < 30%; in test [3], < 30%; in test [4], < 30%; in test [5] (setting [9]), < 30%. In addition, in the test on HeLa (cervical cancer) (setting [10]), the inhibition at 3.3 µM is < 30%.

For `O=C(O)CC1=C(CC2CCCC2)/C(=C/c2cccc(COc3ccccc3)c2)c2ccc(F)cc21` [A6, (Z)-2-(2-(Cyclopentylmethyl)-5-fluoro-1-(3-(phenoxymethyl)benzylidene)-1H-inden-3-yl)acetic acid], the inhibition at 10 µM in test [1] is > 80%; in test [2] (setting [6]), ≥ 50%; with HepG2 (liver cancer) (setting [7]), ≥ 50%; in the test on SW480 (colon cancer) (setting [8]) it was ≥ 50%; in test [3] it was ≥ 50%; in test [4], ≥ 50%. The inhibition at 10 µM (in test [5] (setting [9]); in the test with HeLa (cervical cancer) (setting [10])) was ≥ 50% throughout. Also, the inhibition at 3.3 µM in test [2] (setting [6]) is ≥ 50%; in the test with HepG2 (liver cancer) (setting [7]), ≥ 50%; in the test on SW480 (colon cancer) (setting [8]), < 30%; in test [3], ≥ 50%; in test [4] it was ≥ 50%; in test [5] (setting [9]), ≥ 50%. Further, the inhibition at 3.3 µM in the test on HeLa (cervical cancer) (setting [10]) was ≥ 50%.

Turning to `O=C(O)CC1=C(Cc2ccc(F)cc2)/C(=C/c2ccc(Oc3ccc(F)cc3)cc2)c2ccc(F)cc21` [C14, (Z)-2-(5-Fluoro-2-(4-fluorobenzyl)-1-(4-(4-fluorophenoxy)benzylidene)-1H-inden-3-yl)acetic acid], the inhibition at 10 µM in test [1] was > 80%; in test [2] (setting [6]) it was ≥ 50%; in the test with HepG2 (liver cancer) (setting [7]), ≥ 50%; in the test with SW480 (colon cancer) (setting [8]) it was ≥ 50%; in test [3], ≥ 50%; in test [4], ≥ 50%. Further, the inhibition at 10 µM (in test [5] (setting [9]); in the test with HeLa (cervical cancer) (setting [10])) was ≥ 50% in each case. Besides, the inhibition at 3.3 µM in test [2] (setting [6]) was ≥ 50%; in the test with HepG2 (liver cancer) (setting [7]), ≥ 50%; in the test with SW480 (colon cancer) (setting [8]) it was < 30%; in test [3], ≥ 50%; in test [4], ≥ 50%; in test [5] (setting [9]), < 30%. Further, the inhibition at 3.3 µM in the test on HeLa (cervical cancer) (setting [10]) is ≥ 50%.

The values are drawn from US20260184663A1, “INDENE COMPOUNDS, PHARMACEUTICAL COMPOSITIONS THEREOF, AND THEIR THERAPEUTIC APPLICATIONS” (NucMito Pharmaceuticals co. Ltd., priority 2022, published 2026).
